Data: patent US12304912B2, “Fused bicyclic RAF inhibitors and methods for use thereof” (Jazz Pharmaceuticals Ireland Limited, priority 2020, dated 2025)

How the values were obtained:
[1] = Microsomal stability assay, human liver microsomes (HLM); assay type: in vitro ADME; settings: 0.5 mg/mL protein, 1 μM substrate
Outline: (§1)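 Substrate depletion: 1 μM compound incubated at 37° C. with cryopreserved mouse or human liver microsomes at 0.5 mg·mL^−1 protein. Timed aliquots quenched in ice-cold organic solvent and measured by LC-MS/MS; t1/2 and CLint derived from the slope of ln % remaining versus time.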

[2] = Microsomal stability assay, mouse liver microsomes (MLM); assay type: in vitro ADME; settings: 0.5 mg/mL protein, 1 μM substrate
Outline: as §1

[3] = Plasma protein binding assay, mouse plasma (mPPB); assay type: in vitro ADME; settings: 5 μM, equilibrium dialysis 4 hours 37° C.
Outline: (§2)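 Equilibrium dialysis of 5 μM compound in previously frozen human or mouse plasma against phosphate buffer, 4 h at 37 °C. Both chambers quantified by LC-MS/MS; % free = (1−((PC−PF)/PC))×100.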

[4] = test system: BRAF monomers in A375 cells; experiment: A375 AlphaLISA SureFire pERK1/2 cellular assay (monomer); assay type: cell-based; settings: Homo sapiens, A-375; A375 cells, 1 hr; read-out: pERK A375 (1 hr) pIC50 (converted)
Outline: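 BRAF^V600E A375 melanoma cells seeded at 30,000/well in DMEM with 10% FBS, dosed without medium exchange in a 10-point series from 10 μM at 1/2-log steps, 1 h at 37 °C. Phospho-ERK1/2 (Thr202/Tyr204) measured in lysates by AlphaLISA SureFire; absolute IC50 relative to DMSO control.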

[5] = Plasma protein binding assay, human plasma (hPPB); assay type: in vitro ADME; settings: 5 μM, equilibrium dialysis 4 hours 37° C.
Outline: as §2

[6] = test system: RAF dimers in HCT-116 cells; experiment: HCT-116 AlphaLISA SureFire pERK1/2 cellular assay (dimer); assay type: cell-based; settings: Homo sapiens, HCT-116; HCT116 cells pre-dosed with 1 μM Encorafenib, 1 hr; read-out: pERK HCT116 dimer (1 hr) pIC50 (converted)
Outline: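 HCT-116 (KRAS G13D) cells, 30,000/well, pretreated 1 h with 1 μM Encorafenib to induce RAF dimers, washed, then dosed 1 h at 37° C with compound (10-point, top 10 μM, 1/2 log steps) in growth medium. pERK1/2 (T202/Y204) measured by AlphaLISA SureFire; absolute IC50 versus DMSO control.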

[7] = Solubility (Sol), medium not stated; assay type: physicochemical; settings: cells not marked (FESSIF)

SMILES	microsomal CLint at 1 μM [1] [µL/min/mg]	microsomal CLint at 1 μM [2] [µL/min/mg]	mPPB (% free) [3] [% free]	IC50 [4] [nM]	hPPB (% free) [5] [% free]	IC50 [6] [nM]	Sol [7] [mg/L]
O=C1CCc2c(Oc3ccc4c(c3)CC(c3nc5c(C(F)(F)F)cccc5[nH]3)CO4)ccnc2N1 (centres unmarked) [Compound 27]	102	148	<0.1	389	<0.1	380	<1.2
Cc1cc(C(F)(F)F)cc2nc(C3COc4ccc(Oc5ccnc6c5CCC(=O)N6)cc4C3)[nH]c12 (centres unmarked) [Compound 31]	34.6	26	0.2	126	<0.1	871	<1.2
CN(C)Cc1cc(C(F)(F)F)cc2nc(C3COc4ccc(Oc5ccnc6c5CCC(=O)N6)cc4C3)[nH]c12 (centres unmarked) [Compound 33]	77.3	37	3.1	380	2	661	7
O=C1CCc2c(Oc3ccc4c(c3)CN(C(=O)NCc3ccccc3)CC4)ccnc2N1 [Compound 48]	40.5	38.4	3	9120	2	7240	<1.1
O=C1CCc2c(Oc3ccc4c(c3)CN(C(=O)Nc3ccccc3C(F)(F)F)CC4)ccnc2N1 [Compound 49]	82.2	83.6	2.5	7760	1.9	8910	<1.2
